Assay results taken from patent US20250339426A1, “GCN2 MODULATOR FOR TREATING CANCER” (HIBERCELL, INC., priority 2022, published 2025).

What was measured:
[1] = test system: MOLM-16 (human AML cells); experiment: In vivo tumor growth inhibition, MOLM-16 xenograft; design: species or system NOD SCID mice
Procedure: MOLM-16 (human AML cells): Female 6-8 weeks old nonobese diabetic/severe combined immunodeficiency (NOD SCID) mice were inoculated subcutaneously on the right flank with MOLM-16 tumor cells (1×10^7) in RPMI 1640 without serum for tumor development. The treatments were started when the mean tumor size reached approximately 220 mm^3 at Day 14 after cell inoculation and continued until end of study by twice daily oral gavage dosing of HC-7366 at listed doses (vehicle, 0.25 mg/kg HC-7366, 0.5 mg/kg HC-7366, 1 mg/kg HC-7366, or 2 mg/kg HC-7366, FIG. 16)
[formula] • 2.2.2 Tumor Measurements: The measurement of tumor size was conducted three times weekly with a caliper and recorded. The tumor volume (mm^3) was estimated using the formula: TV=a×b^2/2, where “a” and “b” is long and short diameters of a tumor, respectively. Tumor volume was calculated using the formula [tumor volume (mm^3)=π/6×length×width^2).
Regression was calculated using the formula=100×ΔT/T initial, if ΔT<0. Animals with 0 mm^3 tumor volume (no measurable tumor) for three consecutive measurements were considered as complete responders and animals with 50% tumor regressions were partial responders.

[2] = test system: HIF2α and GLUT1 in 786-O tumors; experiment: Tumor IHC, 786-O tumors (DC101 combination study); type: in vivo, BALB/c nude mice; conditions: HC-7366 2 mg/kg twice daily, DC101 15 mg/kg twice a week
Procedure: 786-O (human renal cell carcinoma cancer cells): Female 6-8 weeks old BALB/c nude mice were inoculated subcutaneously on the right flank with 786-O tumor cells (5×10^6) in 0.1 ml of RPMI1640 medium without serum for tumor development. The treatments were started when the mean tumor size reached approximately 189 mm^3 after three weeks post inoculation and continued until end of study by twice daily oral gavage dosing of HC-7366 at listed doses (vehicle or 2 mg/kg HC-7366, FIGS. 52-54). For the DC101 combination study, DC101 (murine monoclonal anti-VEGFR2 antibody) was dosed at 15 mg/kg twice a week by intraperitoneal injection.
Immunohistochemical analysis was carried out on tumors that were collected at the end of the study described in Example 6. […]
Slides were imaged with Aperio Versa 200 (Leica Biosystems) whole-slide scanner using 10×/0.32NA objective, and the data were analyzed using custom-written macros in ImageJ/FIJI (NIH). Briefly, 150 μm of outer edges of the tumor sections and necrotic regions (determined by lack of 4′,6-diamidino-2-phenylindole (DAPI) signal or presence of condensed DNA) were eliminated from the analysis. […] Scans of immune-staining were processed to remove background, then total intensity value above appropriate threshold levels was measured and normalized to tissue area. […]

FaDu cells = experiment: CTG viability assay, FaDu sgControl and sgGCN2 cells; type: cell-based, human; conditions: 72 or 96 hr
Procedure: FaDu cells were obtained from ATCC (#HTB-43) and were cultured in Eagle's Minimum Essential Medium, Catalog No. 30-2003 at 37° C. and 5% CO2. FaDu GCN2 CRISPR knockout cells (sgGCN2) or control cells (sgControl) were generated. For viability experiments, cells were plated in 384-well cell culture plates and incubated overnight. Compounds were diluted in 10 concentrations by 3-fold dilution in 384pp-plate using TECAN EVO200 to a final concentration ranging from […]. The plates were incubated for 72 or 96 hr and viability was assessed by adding CellTiter-Glo® 2.0 Assay according to the manufacturer's protocol (Promega, G9243) to each well. The plates were then incubated at RT for 30 min. The luminescent signals were read by Envision (PerkinElmer) plate reader and analyzed by Prism

[3] = test system: ATF4, ASNS, PSAT1 in MOLM-16 cells; experiment: Jess protein analysis, MOLM-16 cells; type: cell-based, human; conditions: sgControl vs sgGCN2, 24 hr
Procedure: Cell lysates were obtained from MOLM-16 sgControl or sgGCN2 cells treated with HC-7366 (0, 0.01, 0.1 and 10 μM) for 24 hr. Ice cold 1x radioimmunoprecipitation assay (RIPA) lysis buffer supplemented with protease and phosphatase inhibitors was added to the cell pellets, on ice. After 30 min on ice, the cell lysates were centrifuged at 4° C., 12,000 rpm for 15 minutes and the supernatant collected. Protein concentration was determined using BCA kit. The cell lysates were mixed with 5× sodium dodecyl sulfate (SDS) loading buffer and denatured at 95° C. for 5 minutes. 1 μg lysate was run on Jess capillary and results were analyzed by compass simple western software.

MOLM-16 cells = experiment: Seahorse XF Mito stress test (OCR) and Glycolysis Stress Test (ECAR); type: cell-based, human; conditions: 0.001, 0.1 or 10 μM, 16 hrs; strongest effect at 0.1 μM
Procedure: MOLM-16 cells were treated with 0.001, 0.1 or 10 μM HC-7366 for 16 hrs and the Seahorse XF Glycolysis Stress Test (ECAR; extracellular acidification rate) and Seahorse XF Mito stress test (OCR; oxygen consumption rate) (Agilent technologies, CA, USA) were performed.

How did the “effect on xenograft tumors” value ([1]; 2 mg/kg twice daily oral) turn out when `CNC(=O)c1ncn2cc(-c3c(F)ccc(NS(=O)(=O)c4cc(Cl)cnc4OC)c3F)ncc12` [HC-7366, 6-(3-((5-chloro-2-methoxypyridine)-3-sulfonamido)-2,6-difluorophenyl)-N-methylimidazo[1,5-a]pyrazine-1-carboxamide] was run?
Its value is “complete eradication”.

And the “effect on xenograft tumors” value ([1]; other doses (0.25, 0.5, 1 mg/kg twice daily))?
The value was “tumor growth inhibition”.

And the “GLUT1 levels by IHC” value [2]?
Its value is “significantly reduced”.

What about the “HIF2α by IHC” value ([2]; single agents and combination) of the same compound?
Its value is “significantly decreased”.

And the viability (FaDu cells; FaDu control cells)?
The viability was “potently reduced viability”.

What about the viability response (FaDu cells; GCN2 CRISPR knockout cells) of the same compound?
Its viability response is “reversed”.

What about the “levels of ATF4, ASNS and PSAT1” value [3] of the same compound?
Its value is “GCN2-dependent increase”.

And the “OCR (oxygen consumption rate)” value (MOLM-16 cells)?
The value was “significantly reduced”.

What about the “glycolysis (ECAR)” value (MOLM-16 cells) of the same compound?
Its value is “significantly reduced”.
